Laboratory results taken from patent US20010039041A1, “Immunosuppressive sesbanimide compositions and methods of treatment using same” (priority 1995, published 2001).
In brackets after ≈: the same amount, converted by molar mass. Several values for one entry are separate records, joined by “and”; a condition that tells them apart may be missing. Equal values may be shown once. Read-outs that look alike come from different tables or passages of the source.

Experiments:
[1] = Toxicology (MTD, LD50) in mice; format: in vivo, mouse; details: mouse, in vivo; CD-1 or CB6F1 mice
Procedure: (§1) The MTD establishes the parameters to establish in vivo dosages initiated for studying the Graft-v-Host reaction and skin grafting. The Swiss conventional mouse (Charles River CD-1) is used in a weight range from 18-30 g.
(§2) A saline solution containing 5% non-denatured EtOH and a drop of Tween-80 detergent is used a vehicle for dilution. Stirring and sonication are utilized to effect solution or suspension of the composition. The composition is injected within one hour of preparation. Animals are observed for five days (MTD) after injection for toxic symptoms and/or death. Group weights are taken D0 and D5. Surviving animals are sacrificed on D5 (MTD). A ‘Daily Logsheet’ used in the toxicity studies is appended.

CD-1 or CB6F1 Mice = experiment: Toxicology (MTD, LD50) in mice; format: in vivo, mouse
Procedure: as §1, §2

[2] = tested on: mixed lymphocytes from Balb/c (H-2d) and C57BI/6 (H-2b) mice; experiment: Murine Mixed Lymphocyte Reaction (MLR), 3H-thymidine incorporation; format: cell-based; details: for IC50: Mus musculus, Lymphocyte; for Index Cytotox./Activity: ratio LcV IC50 / MLR IC50
Procedure: Mixed Lymphocyte Reaction (MLR)
The MLR is an in vitro test of cellular immunity in which murine lymphocytes from genetically dissimilar animals are cocultured to mutually induce cell proliferation (i.e., two-way MLR method). Mixed cell suspensions, together with the test compound, are incubated for 96 hours and subsequently pulsed for 15 hours with tritiated-thymidine (3H-Thy), a radioisotopically labelled nucleic acid. Tritiated-thymidine is incorporated into the DNA of proliferating cells. Data from the MLR is generated as dpm of radioactivity which is then expressed as a percentage of cellular activity, relative to control, using the following reduced formula: [formula]
A 50% inhibitory concentration (IC50) value was interpolated for sesbanimide containing fractions tested. A ratio between cytotoxicity, as determined from the LcV described below, and activity in the MLR is also presented. A high ratio distinguishes noncytotoxic immunosuppression from general cytotoxicity.
Reconstituted extract (10 μl) is added in two sets of duplicates into wells of a 96-well microtiter plate and evaporated to dryness at room temperature. […] To the other set of sample duplicates is added complete media without cells so as to provide for background color control data. All plated are incubated in a 5% CO2 incubator for 96 hours and pulsed for 15 hours with 100 μl containing 1 μCi/well tritiated-thymidine (^3H-Thy). The plates are harvested onto glass fiber filter discs using an INOTECH harvester. The filter discs are counted directly using an INOTECH dry scintillation counter. The activity of the discs are calculated as a relative proliferative percent of a mean control value as described above.

[3] = Lymphocyte Viability / Cytotoxicity Assay (LcV), MTT; format: cell-based, murine; details: Balb/c, mouse, murine lymphocytes (Balb/c); text summary of Table 4
Procedure: (§3) Lymphocyte Cytotoxicity (LcV) Assay
(§4) The LCV is a in vitro cytotoxicity assay for murine lymphocytes designed by the investigator. The LCV is similar to the MLR with the exception that only one cell population (Balb/c) is incubated with the test compound to assess cytotoxicity as distinct from the antiproliferative effects of a test compound. That is, unlike the unambiguous determination of immunostimulation from MLR data, a judgement of immunosuppression can not be immediately interpreted. Cytotoxicity (e.g., due to direct cell lysis) from a compound can occur which would alter viability determinations inherent in the generation of MLR data. […] The percent viable cells is determined by the MTT-thiazolyl blue method after a similar incubation to the MLR of lymphocytes with the test sample. MTT is a substrate converted by mitochoridrial enzymes in living cells to a purple, water-insoluble, formazan crystal. If there is no significant reduction in cell viability, as determined by this detection method, then damaged cells are probably not present for low data values generated in the MLR. Colorimetric data from the LCV is calculated as a percentage of viability, relative to control, using the following formula: [formula]
(§5) A 50% viability, or 50% cytotoxicity, (IC50) value was interpolated for sesbanimide containing fractions tested.
(§6) Lymphocytes are prepared as described above for the MLR with the exception that cells from only one murine strain are prepared (BLAB/c). Reconstituted extract (10 μl) is added in two sets of duplicates into wells of a 96-well microtiter plate and evaporated to dryness at room temperature. Lymphocytes (2.5×10^6 cells/ml) are added to one set of duplicates and to wells containing no sample. Media containing no cells are added to the other set of duplicates to provide background color control data. Plated are incubated in a 5% CO2 incubator for 4 hours and pulsed with MTT-thiazolyl blue for 6-8 hours.

[4] = tested on: murine lymphocytes (Balb/c); experiment: as above; format: cell-based; details: Balb/c lymphocytes, MTT viability (cytotoxicity)
Procedure: as §3, §4, §5, §6

[5] = tested on: CB6-F1 mice grafted with Balb/c splenic lymphocytes; details: for Alive Day 8 / Optimal Dose: GVHR; for Alive Day 8 / Index: at optimal dose; for Optimal Dose: i.p. per diem for 7 days; for Index: spleen index vs syngeneic control, >1.3 = successful graft rejection
Excerpt: Graft-vs-Host Reaction (GVHR)
The GVHR used for in vivo screening is a modification of the Simonsen's technique. The F1 hybrid host animal is grafted with immunocompetent spleens cells from a parent strain. The host spleen cells are incompatible to grafted donor cells but are themselves not competent to react against them (shared parental genetic determinants). The rejection mechanism in this model is, therefore, from the graft toward the host. The grafted cells, via intraperitoneal injection, migrate to the host's spleen. There they proliferate in response to the difference in genetic determinants inherited from the other parental strain. The index used to measure the success of the GVHR is spleenomegally (increased spleen weight due to cellular proliferation of grafted lymphocytes). An index of 1.0 is equivalent to the spleen weight of syngeneic grafted controls. An index >1.3 (graft index) is considered to be a successful graft rejection of the recipient animal. Any sample that prevents spienomegaly (<graft index) is considered as an immunosuppressive active. Likewise, enhancement of splenomegaly (>graft index) is due either to immunostimulatory synergy of the response or nonspecific immunostimulation. This assay is a cell-mediated type of response and is the direct in vivo correlate of the MLR.
The GVHR is widely used as an in vivo model in transplantation research laboratories. As in models for delayed sensitivity and allograft rejection, it also has clinical implications, especially in bone marrow transplantation. In this situation, immunocompetent lymphocytes transferred with the transplanted bone marrow cells can recirculate into the host bone marrow. These cells from the graft can react against the host (i.e., graft-vs-host disease) with deleterious consequences.
The highest test dose is selected from a previously determined maximum tolerated dose (MTD) resulting from a once only intraperitoneal (i.p.) injection of two animals/dose (e.g., 400, 100, 40 and 10 mg/kg) These animals are followed for five days to allow for possible toxic side effects of the test compound.
In the GVHR, male, CB6-F1 mice (H2^d+H2^b) are grafted by i.p. injection of 50×106 Balb/c (H2^d) splenic lymphocytes conditioned in high-glucose (4500 mg/L) Dulbecco's modified Eagles medium. […] Grafted positive controls, nongrafted negative controls and syngeneic grafted animals all receive vehicle i.p. injections during this time. A standard of cyclophosphamide (200 mg/kg) is used. Experimental animals are sacrificed on D8 and spleens removed. The data is reported as a spleen index compared to the weight of the syngeneic control spleen—both corrected for the total body weights of the animals. In addition, the spleens are homogenized and the lymphocytes enumerated and viabilities determined. The data from both determinations are also expressed as a percent immunomodulation of the positive controls. all data is corrected for nonspecific effects measured from nongrafted animals. Moribund animals are sacrificed immediately.

[6] = tested on: Agrobacterium species strain PH-103; experiment: Antibiotic sensitivity (Difco sensitivity discs); format: cell-based, Agrobacterium sp.; details: strain PH-103, ATCC 231 basal medium, 27° C.
Procedure: The culture was incubated at 27° C. and records of the results were made after suitable incubation times. All media were prepared with 2.7% Instant Ocean Salts and pH was approximately neutral (7-7.4). The description of the culture and test results are as follows: […]

## C=C1COC(O)(C2OCOC(C3CC(=O)NC(=O)C3)C2O)C1C (stereo not drawn) [Sesbanimide, sesbanimide]
[1]
  LD50 at 7 days: 0.805 mg/kg
CD-1 or CB6F1 Mice; CD-1 or CB6F1 mice
  Maximum Tolerated: 0.56 mg/kg
CD-1 or CB6F1 Mice; at maximum tolerated dose, CD-1 or CB6F1 mice
  Alive Day 5: 100%
CD-1 or CB6F1 Mice; between 1.05 and 0.56 mg/kg/total dose, QD 1-7 experiment in CB6F1 mice
  LD50 determination: 0.805 mg/kg/total dose
CD-1 or CB6F1 Mice; pure compound at 56, 10.5 and 5.6 mg/kg
  toxicity: toxic
CD-1 or CB6F1 Mice; pure compound, in vivo
  total dose showing no toxicity: ≤ 0.56 mg/kg
[2]; LcV vs MLR
  separation of cytotoxicity to biological activity: > 3 log
[2]; in vitro cell-mediated immune response, text summary of Table 4, read-out: biological activity IC50
  IC50: 0.00015 to 0.0036 µg/mL (≈ 0.000458 to 0.011 µM)
[2]; murine two-way MLR, 96 h incubation, 15 h 3H-Thy pulse, read-out: MLR IC50
  IC50: 0.00015 µg/mL (≈ 0.000458 µM)
[2]
  Index Cytotox./Activity: 2,777
[3]
  IC50 at 4 h: 0.417 to 3.6 µg/mL (≈ 1.27 to 11 µM)
[4]; Mus musculus, Lymphocyte
  IC50: 0.417 µg/mL (≈ 1.27 µM)
[5]
  Alive Day 8: 40%
  Optimal Dose: 0.2 mg/kg
  Index: 0.92

## sesbanimide
[2]; murine two-way MLR, 96 h incubation, 15 h 3H-Thy pulse
  MLR IC50: <0.0075 µg/mL
[2]
  Index Cytotox./Activity: >1,746
[4]
  LcV IC50: 13.100 µg/mL

## CN[C@H](CC(C)C)C(=O)N[C@H]1C(=O)N[C@@H](CC(N)=O)C(=O)N[C@H]2C(=O)N[C@H]3C(=O)N[C@H](C(=O)N[C@H](C(=O)O)c4cc(O)cc(O)c4-c4cc3ccc4O)[C@H](O)c3ccc(c(Cl)c3)Oc3cc2cc(c3O[C@@H]2O[C@H](CO)[C@@H](O)[C@H](O)[C@H]2O[C@H]2C[C@](C)(N)[C@H](O)[C@H](C)O2)Oc2ccc(cc2Cl)[C@H]1O [vancomycin]
[6]
  Antibiotic sensitivity: resistant

## O=P1(N(CCCl)CCCl)NCCCO1 (stereo not drawn) [Cyclophosphamide, cyclophosphamide]
[5]
  Alive Day 8: 100% and 60%
  Optimal Dose: 200.0 mg/kg
  Index: 0.23 and 0.28

## polymyxin
[6]
  Antibiotic sensitivity: resistant

## CCn1cc(C(=O)O)c(=O)c2ccc(C)nc21 [nalidixic acid]
[6]
  Antibiotic sensitivity: Sensitive
